Test results from DBAASP.
≈ marks a conversion by molar mass, not a printed value. Where “and” joins values, the source holds several entries; their conditions need not be identical. Identical values can stand only once. One block for each compound: values may come before it.

Assays:
Test in all cases: ≥ marks a high value that may be exact or a test limit, other limits are often not marked, values filed in µg/mL are converted to µM
Candida albicans = test system: Candida albicans
[1] = test system: Staphylococcus aureus ATCC 49476
[2] = test system: Pseudomonas aeruginosa ATCC 27853
Staphylococcus aureus MR = test system: Staphylococcus aureus MR
Leuconostoc lactis = test system: Leuconostoc lactis
Pasteurella multocida = test system: Pasteurella multocida
Staphylococcus aureus = test system: Staphylococcus aureus
Micrococcus luteus = test system: Micrococcus luteus
Streptococcus uberis = test system: Streptococcus uberis
Listeria innocua = test system: Listeria innocua
Bacillus cereus = test system: Bacillus cereus
[3] = test system: Staphylococcus epidermidis
Escherichia coli = test system: Escherichia coli
[4] = test system: Trichosporon beigelii KCTC 7707
[5] = test system: Fusarium verticillioides KCTC 6149
[6] = test system: Candida tropicalis KCTC 7221
[7] = test system: Candida parapsilosis CCARM 14016
[8] = test system: Fusarium oxysporum KCTC 16909
[9] = test system: Candida krusei CCARM 14017
Escherichia coli DH10B = test system: Escherichia coli DH10B
[10] = test system: Saccharomyces cerevisiae BY4741
Vibrio anguillarum = test system: Vibrio anguillarum
[11] = test system: Pseudomonas aeruginosa Z61
Aeromonas salmonicida = test system: Aeromonas salmonicida
[12] = test system: Pseudomonas aeruginosa K799
[13] = test system: Salmonella enterica subsp. enterica serovar Typhimurium ATCC 14028s
[14] = test system: Staphylococcus epidermidis C621
[15] = test system: Salmonella enterica serovar typhimurium MS7953s
[16] = test system: Escherichia coli CVCC 1515
[17] = test system: Enterococcus faecalis CVCC 3936
[18] = test system: Streptococcus suis CVCC 606
[19] = test system: Escherichia coli CVCC 195
[20] = test system: Salmonella enterica subsp. enterica serovar Pullorum CVCC 533
[21] = test system: Listeria ivanovii ATCC 19119
[22] = test system: Salmonella enterica subsp. enterica serovar Pullorum CVCC 1809
[23] = test system: Pseudomonas aeruginosa CICC 10419
[24] = test system: Candida albicans CGMCC 2.2411
[25] = test system: Staphylococcus aureus ATCC 43300
[26] = test system: Bacillus subtilis ATCC 6633
[27] = test system: Salmonella enterica subsp. enterica serovar Typhimurium ATCC 14028

MIC (Candida albicans): 22.4 µM (≈ 64 µg/mL) | MIC [1]: ≥ 44.7 µM | MIC [2]: 89.4 µM (≈ 256 µg/mL) | MIC (Staphylococcus aureus MR): ≥ 179 µM
Compound: CC[C@H](C)[C@H](NC(=O)[C@H](C)NC(=O)[C@H](CCCCN)NC(=O)CNC(=O)[C@H](C)NC(=O)[C@H](CO)NC(=O)[C@H](Cc1ccccc1)NC(=O)[C@H](CC(C)C)NC(=O)CNC(=O)CNC(=O)[C@@H](NC(=O)[C@@H](NC(=O)[C@H](Cc1cnc[nH]1)NC(=O)[C@H](Cc1cnc[nH]1)NC(=O)[C@H](C)NC(=O)[C@H](C)N)[C@@H](C)CC)[C@@H](C)CC)C(=O)N[C@@H](Cc1cnc[nH]1)C(=O)N[C@@H](CCCN=C(N)N)C(=O)N[C@@H](CC(C)C)C(=O)N[C@H](C(=O)N[C@@H](CCCN=C(N)N)C(=O)N[C@@H](CCCN=C(N)N)C(=O)N[C@@H](CCCN=C(N)N)C(=O)N[C@@H](CCCN=C(N)N)C(=O)N[C@@H](CCCN=C(N)N)C(=O)O)[C@@H](C)CC [AAHHIIGGLFSAGKAIHRLIRRRRR]

MIC (Leuconostoc lactis): ≥ 40.8 µM | MIC (Pasteurella multocida): ≥ 40.8 µM | MIC (Staphylococcus aureus): > 40.8 µM | MIC (Micrococcus luteus): ≥ 40.8 µM | MIC (Streptococcus uberis): 20.4 µM (≈ 50 µg/mL) | MIC (Listeria innocua): ≥ 40.8 µM | MIC (Bacillus cereus): ≥ 40.8 µM | MIC [3]: ≥ 40.8 µM | MIC (Escherichia coli): > 40.8 µM
Compound: CC[C@H](C)[C@H](NC(=O)[C@H](CO)NC(=O)[C@H](CO)NC(=O)[C@H](CCSC)NC(=O)[C@H](CC(C)C)NC(=O)CN)C(=O)NCC(=O)N[C@@H](CCCCN)C(=O)N[C@@H](C)C(=O)N[C@@H](CC(C)C)C(=O)NCC(=O)NCC(=O)N[C@@H](CC(C)C)C(=O)N[C@H](C(=O)N[C@H](C(=O)N[C@@H](CC(=O)O)C(=O)N[C@H](C(=O)N[C@@H](CC(C)C)C(=O)N[C@@H](CCCCN)C(=O)N1CCC[C@H]1C(=O)N[C@@H](CCCCN)C(=O)N[C@H](C(=O)N1CCC[C@H]1C(=O)N[C@@H](C)C(=O)N[C@@H](CO)C(=O)O)[C@@H](C)O)C(C)C)C(C)C)[C@@H](C)CC [GLMSSIGKALGGLIVDVLKPKTPAS]

MIC [4]: 2 µM (≈ 5.2 µg/mL) | MIC [5]: ≥ 48 µM | MIC [6]: 4 µM and 2 µM | MIC [7]: ≥ 64 µM | MIC [8]: 4 µM and 12 µM | MIC [9]: 8 µM (≈ 20.8 µg/mL)
Compound: CC[C@H](C)[C@H](NC(=O)[C@H](C)NC(=O)[C@H](CCC(=O)O)NC(=O)[C@H](Cc1cnc[nH]1)NC(=O)[C@H](C)NC(=O)CNC(=O)[C@H](CCC(N)=O)NC(=O)[C@H](Cc1ccccc1)NC(=O)[C@@H](NC(=O)[C@H](CCCCN)NC(=O)[C@H](CCCCN)NC(=O)[C@H](C)NC(=O)[C@H](C)NC(=O)[C@H](CC(N)=O)NC(=O)[C@H](CC(C)C)NC(=O)CN)C(C)C)C(=O)N[C@@H](CCCCN)C(=O)N[C@@H](CC(C)C)C(=O)N[C@H](C(=O)N[C@@H](CC(N)=O)C(=O)N[C@@H](CC(N)=O)C(=O)N[C@@H](Cc1cnc[nH]1)C(=O)N[C@H](C(=O)N[C@@H](CCC(N)=O)C(N)=O)C(C)C)[C@@H](C)CC [GLNAAKKVFQGAHEAIKLINNHVQ]

MIC (Escherichia coli DH10B): 20 µM (≈ 49.8 µg/mL) | MIC [10]: 10 µM (≈ 24.9 µg/mL)
Compound: CSCC[C@H](NC(=O)[C@@H]1CCCN1C(=O)[C@H](CCC(N)=O)NC(=O)CNC(=O)[C@@H]1CCCN1C(=O)[C@H](CCCCN)NC(=O)[C@H](CC(C)C)NC(=O)[C@H](CCC(N)=O)NC(=O)[C@H](CC(C)C)NC(=O)[C@H](Cc1c[nH]c2ccccc12)NC(=O)[C@H](Cc1cnc[nH]1)NC(=O)[C@H](Cc1c[nH]c2ccccc12)NC(=O)[C@H](Cc1ccccc1)NC(=O)[C@H](CCCN=C(N)N)NC(=O)[C@H](CC(N)=O)NC(=O)[C@H](CC(C)C)NC(=O)[C@H](Cc1ccccc1)NC(=O)[C@@H](N)CCCCN)C(=O)N[C@@H](Cc1ccc(O)cc1)C(=O)O [KFLNRFWHWLQLKPGQPMY]

MIC (Vibrio anguillarum): 21.7 µM (≈ 64 µg/mL) | MIC [11]: 21.7 µM (≈ 64 µg/mL) | MIC (Aeromonas salmonicida): 10.9 µM (≈ 32 µg/mL) | MIC [12]: 21.7 µM (≈ 64 µg/mL) | MIC [13]: 21.7 µM (≈ 64 µg/mL) | MIC [14]: 21.7 µM (≈ 64 µg/mL) | MIC [15]: 2.72 µM (≈ 8 µg/mL)
Compound: CC[C@H](C)[C@H](NC(=O)[C@@H](N)CO)C(=O)NCC(=O)N[C@@H](CO)C(=O)N[C@@H](C)C(=O)N[C@@H](Cc1ccccc1)C(=O)N[C@@H](CCCCN)C(=O)N[C@@H](CCCCN)C(=O)N[C@@H](C)C(=O)N[C@@H](C)C(=O)N[C@@H](Cc1cnc[nH]1)C(=O)N[C@H](C(=O)NCC(=O)N[C@@H](CCCCN)C(=O)N[C@@H](Cc1cnc[nH]1)C(=O)N[C@H](C(=O)NCC(=O)N[C@@H](CCCCN)C(=O)N[C@@H](C)C(=O)N[C@@H](C)C(=O)N[C@@H](CC(C)C)C(=O)NCC(=O)N[C@@H](C)C(=O)N[C@@H](C)C(=O)N[C@@H](C)C(=O)N[C@@H](CCCN=C(N)N)C(=O)N[C@@H](CCCN=C(N)N)C(=O)N[C@@H](CCCN=C(N)N)C(=O)N[C@@H](CCCCN)C(=O)O)C(C)C)C(C)C [SIGSAFKKAAHVGKHVGKAALGAAARRRK]

MIC [16]: 25.8 µM (≈ 63.9 µg/mL) | MIC [17]: 25.8 µM (≈ 63.9 µg/mL) | MIC [18]: 25.8 µM (≈ 63.9 µg/mL) | MIC [19]: 25.8 µM (≈ 63.9 µg/mL) | MIC [20]: 25.8 µM (≈ 63.9 µg/mL) | MIC [21]: 25.8 µM (≈ 63.9 µg/mL) | MIC [22]: 25.8 µM (≈ 63.9 µg/mL) | MIC [23]: 25.8 µM (≈ 63.9 µg/mL) | MIC [24]: 25.8 µM (≈ 63.9 µg/mL) | MIC [25]: > 25.8 µM | MIC [26]: 25.8 µM (≈ 63.9 µg/mL) | MIC [27]: > 25.8 µM
Compound: CC(C)[C@H](N)C(=O)N[C@H]1CSSC[C@@H](C(=O)N[C@@H](Cc2cnc[nH]2)C(=O)N[C@@H](CCCN=C(N)N)C(=O)N[C@@H](CCCN=C(N)N)C(=O)N[C@@H](C)C(=O)N[C@@H](CC(N)=O)C(=O)N[C@@H](CC(N)=O)C(=O)NCC(=O)N[C@H](C(=O)N[C@@H](CCCN=C(N)N)C(=O)N[C@H](C(=O)O)C(C)C)C(C)C)NC(=O)[C@H](CC(N)=O)NC(=O)[C@H](Cc2c[nH]c3ccccc23)NC(=O)[C@H](C)NC(=O)[C@H](Cc2ccccc2)NC(=O)CNC(=O)[C@H](CCCN=C(N)N)NC(=O)[C@H](Cc2ccc(O)cc2)NC(=O)[C@H](C(C)C)NC1=O [VCVYRGFAWNCHRRANNGVRV]
